IC50, EC50 and deaths data for six molecules are collected here from patent publication US5489693A, “Cyclic imino derivatives, pharmaceutical compositions containing these compounds and processes preparing them” (priority 1992, dated 1996).

One data set concerns the target human thrombocytes. In words: Inhibition of binding of ^3 H-BIBU 52 to human thrombocytes (Fibrinogen-binding test). Conditions: ^3 H-BIBU 52 5 nM, human platelet-rich plasma 1:10 diluted, ambient temperature, 20 minutes. How it is done: 1. Inhibition of binding of ^3 H-BIBU 52 to human thrombocytes: […] Case 5/1093-FL) and various concentrations of the substance to be tested. The free and bound ligand is separated by centrifuging and quantitatively determined by scintillation counting. The inhibition of ^3 H-BIBU 52 binding by the test substance is determined from the measurements obtained. In order to do this, donor blood is taken from an anticubital vein and anticoagulated with trisodium citrate (final concentration 13 mM). The blood is centrifuged for 10 minutes at 170 x g and the supernatant platelet-rich plasma (PRP) is removed. The remaining blood is sharply centrifuged once more in order to obtain plasma. The PRP is diluted 1:10 with autologous plasma. 750 μl are incubated with 50 μl of physiological saline solution, 100 μl of test substance solution, 50 μl of ^14 C-sucrose (3,700 Bq) and 50 μl of ^3 H-BIBU 52 (final concentration: 5 nM) at ambient temperature for 20 minutes. In order to measure the non-specific binding, 5 μl of BIBU 52 (final concentration: 30 μM) are used instead of the test substance. The samples are centrifuged for 20 seconds at 10,000 x g and the supernatant is poured off. 100 μl thereof are measured in order to determine the free ligand. The pellet is dissolved in 500 μl of 0.2N NaOH, 450 μl are mixed with 2 ml of scintillator and 25 μl of 5N HCl and measured. The residual plasma remaining in the pellet is determined from the ^14 C-content and the bound ligand is determined from the ^3 H-measurement. After the non-specific binding has been deducted, the pellet activity is plotted against the concentration of the test substance and the concentration for a 50% inhibition of binding is determined.

In a further data set the test system is platelet aggregation. Kind of data set: Antithrombotic activity: inhibition of collagen-induced platelet aggregation (Born and Cross method). Format: cell-based. Particulars: Homo sapiens, 10 min, platelet-rich plasma from healthy volunteers, 10 minutes incubation at 37° C. How it is done:
2. Antithrombotic activity Method The thrombocyte aggregation is measured using the Born and Cross method (J. Physiol. 170:397 (1964)) in platelet-rich plasma taken from healthy volunteers. To inhibit coagulation the blood is mixed with 3.14% sodium citrate in a volume ratio of 1:10. Collagen-induced aggregation The pattern of the decrease in optical density of the platelet suspension is photometrically measured and recorded after the addition of the aggregation-triggering substance. The rate of aggregation is determined from the angle of inclination of the density curve. The point on the curve where there is maximum light transmittance is used to calculate the optical density. The amount of collagen used is as small as possible but sufficient to produce an irreversible reaction curve. Standard commercial collagen produced by Hormonchemie of Munich is used. Before the addition of the collagen the plasma is incubated for 10 minutes with the substance at 37° C. From the measurements obtained an EC50 is determined graphically, indicating a 50% change in the optical density in terms of the inhibition of aggregation. The Table which follows contains the results found: […]

The subject of the next data set is mice. In words: Tolerability after intravenous administration to mice. Format: in vivo. Particulars: intravenous administration of 15 mg/kg, 3 animals.

Counter-ions that a name gives are not always drawn.

For `N=C(N)c1ccc(N2CC(N3CCOCC3)=C(c3ccc(CCC(=O)O)cc3)C2=O)cc1` [2(3), 1-(4-amidinophenyl)-3-[4-(2-carboxy-ethyl)-phenyl]-4-morpholino-3-pyrrolin-2-one-hydrochloride], at human thrombocytes, the IC50 (usually the concentration that inhibits the measured activity by half) was 42 nM. Besides, the EC50 (commonly the concentration at which the effect is half-maximal) with platelet aggregation came to 730 nM.

The molecule `N=C(N)c1ccc(N2CCC(c3ccc(CCC(=O)O)cc3)C2=O)cc1` (stereo not shown) [2(13), 1-(4-amidinophenyl)-3-[4-(2-carboxy-ethyl)-phenyl]-pyrrolidin-2-one-hydrochloride] registered an IC50 on human thrombocytes of 110 nM. The same molecule displayed an EC50 with platelet aggregation of 260 nM.

Molecule `COC1=C(c2ccc(CCC(=O)O)cc2)C(=O)N(c2ccc(CN)cc2)C1` [2(55), 1-(4-aminomethyl-phenyl)-3-[4-(2-carboxy-ethyl)phenyl]-4-methoxy-3-pyrrolin-2-one-hydrochloride] displayed an IC50 on human thrombocytes of 180 nM. Besides, the midpoint of the response with platelet aggregation, the EC50, lay at 330 nM.

With `COC(=O)CCc1ccc(C2=C(OC)CN(c3ccc(CN)cc3)C2=O)cc1` [5(B), 1-(4-Aminomethyl-phenyl)-4-methoxy-3-[4-(2-methoxycarbonyl-ethyl)-phenyl]-3-pyrrolin-2-one], the IC50 at human thrombocytes is 8600 nM. Further, the concentration for a half-maximal effect (EC50) with platelet aggregation amounted to 380 nM.

In turn, `COC1=C(c2ccc(CCC(=O)O)cc2)C(=O)N(c2ccc(C(=N)N)cc2)C1` [Example 2, -(4-Amidinophenyl)-3-[4-(2-carboxyethyl)-phenyl]-4-methoxy-3-pyrrolin-2one-hydrochloride] yielded a half-inhibitory concentration (IC50) on human thrombocytes of 11 nM. In addition, the concentration for a half-maximal effect (EC50) in the data set on platelet aggregation worked out at 40 nM. Moreover, the deaths entry with mice is on record as “none of the 3 animals tested died”.

As for `CC1(c2ccc(CCC(=O)O)cc2)C(=O)CN(c2ccc(C(=N)N)cc2)C1=O` (stereo not shown) [Example 13, 1-(4-Amidinophenyl)-3-[4-(2-carboxy-ethyl)-phenyl]-3-methyl-pyrrolidin-2,4-dione-hydrochloride], the IC50 on human thrombocytes turned out to be 360 nM. Besides, in the data set on platelet aggregation, it took 500 nM to reach a half-maximal effect (EC50).
